Our source for the LC50 values is ChEMBL document CHEMBL1158002, “Aurantoside C, a new tetramic acid glycoside from the sponge Homophymia conferta” (J Nat Prod, 1999).

Converted amounts (≈) assume the structure as drawn.

The data set can be described thus: Toxicity against brine shrimp. In kind it is organism-based. The settings on record: artemia, in vivo.

Compound `C/C(Cl)=C/C=C/C(Cl)=C/C=C/C=C/C=C/C=C/C(O)=C1\C(=O)[C@H](CC(N)=O)N([C@@H]2OC[C@@H](O)[C@H](O)[C@H]2O[C@@H]2O[C@H](CO)[C@@H](O[C@@H]3O[C@H](C)[C@@H](O)[C@@H]3O)[C@@H]2O)C1=O` [AURANTOSIDE C] displayed an LC50 of 50 µg/mL (≈ 60.3 µM).
